Data published in patent publication US20150328280A1, “ALISPORIVR FOR TREATMENT OF HEPATITIS C VIRUS INFECTION” (priority 2011, published 2015).

What was measured:
[1] = system: HCV genotype 1; assay: study of alisporivir in HCV Genotype 1 non responder patients, decline in HCV RNA; format: in vivo, human; conditions: first week of treatment, with peg-IFNα2a plus RBV
Protocol: The efficacy of the therapy regimen may be monitored using standard protocols. Treatment may be followed by determinations of HCV in serum and measurement of serum ALT (alanine-aminotransferase) levels. For example, the patients may be assessed for the presence of HCV RNA in their plasma. HCV RNA (IU/mL) can be measured at regular intervals during the treatment, e.g., at Day 1 (pre-dose and 4, 8, and 12 hours post-dose) and pre-dose at Day 2, Day 3, Day 8, Day 15, Day 29, and at Week 12, Week 24, Week 36, Week 48, Week 72 (when applicable), and at follow up. In addition, the HCV strains in the patient can be sequenced and assessed for identification of mutations selecting for resistance.
In addition, study of the use of alisporivir in HCV Genotype 1 non responder patients addressed the utility of a 400 mg BID dose regimen versus the same total daily dose given once daily (800 mg QD) during the first week of treatment, both with peg-IFNα2a plus RBV, and the possible relationships between Cmax, AUC, or Cmin and antiviral effect at the end of that treatment period. In this hard to treat patient population, the 400 mg BID dose provided greater decline in HCV RNA from baseline (−1.41 log10 IU/m1) than the 800 mg QD dose (−0.70 log10 IU/ml). […]

[2] = system: HCV genotype 1; assay: phase 2 study of genotype 1 treatment-naive patients, sustained virologic response; format: in vivo, human; conditions: alisporivir 600 mg BID for one week, then 600 mg QD, 48 week treatment, combined with peg-IFNa2a
Text: The virological response parameters are: rapid virologic response at treatment week 4 (RVR 4) defined by undetectable serum HCV-RNA at treatment week 4; early virological response (EVR), defined by at least 2 log10 IU/mL reduction in HCV-RNA compared to baseline (partial EVR) or undetectable serum HCV-RNA (complete EVR) at treatment week 12; sustained virological response (SVR24), defined as absence of HCV-RNA from serum by a sensitive Polymerase Chain Reaction (PCR) assay 24 weeks following end of therapy or the HCV RNA is undetectable (by LOD) 24 weeks after end of treatment; End of Treatment Response (ETR): HCV RNA undetectable (by LOD) at treatment end (completed or prematurely discontinued).

[3] = boceprevir recipients; cited from earlier work

Structure (SMILES) | decline in HCV RNA from baseline ([1]; 400 mg BID) [log10 IU/m1] | decline in HCV RNA from baseline ([1]; 800 mg QD) [log10 IU/ml] | rates of achievement of sustained virologic response (SVR) versus peg-IFNα2a [2] | treatment-emergent anemia versus pegylated interferon and ribavirin recipients [3]
C/C=C/C[C@@H](C)[C@@H](O)[C@H]1C(=O)N[C@@H](CC)C(=O)N(C)[C@H](C)C(=O)N(CC)[C@@H](C(C)C)C(=O)N[C@@H](C(C)C)C(=O)N(C)[C@@H](CC(C)C)C(=O)N[C@@H](C)C(=O)N[C@H](C)C(=O)N(C)[C@@H](CC(C)C)C(=O)N(C)[C@@H](CC(C)C)C(=O)N(C)[C@@H](C(C)C)C(=O)N1C [alisporivir, Alisporivir] | −1.41 | −0.70 | superior | –
CC(C)(C)NC(=O)N[C@H](C(=O)N1C[C@H]2[C@@H]([C@H]1C(=O)NC(CC1CCC1)C(=O)C(N)=O)C2(C)C)C(C)(C)C (stereo partly shown) [boceprevir] | – | – | – | significantly higher
